# Measured values: ChEMBL document CHEMBL1629473, “Convenient synthesis and biological profile of 5-amino-substituted 1,2,4-oxadiazole derivatives” (Eur J Med Chem, 2010)
# Assays:
# [1] = test system: Radical scavenging activity; test: Antioxidant activity assessed as DPPH free radical scavenging activity at 100 uM after 60 mins; format: functional
# [2] = Induction of NO release in phosphate buffer pH 7.4 containing 0.5 mM thiophenol assessed as nitrite level at 100 uM after 60 mins by Griess assay; format: physicochemical; settings: pH 7.4, 1 h
# [3] = test system: Radical scavenging activity; test: Antioxidant activity assessed as DPPH free radical scavenging activity at 100 uM after 20 mins; format: functional
# [4] = Induction of NO release in phosphate buffer pH 7.4 containing 5 mM L-cysteine assessed as nitrite level at 100 uM after 60 mins by Griess assay; format: physicochemical; settings: pH 7.4, 1 h
# Rattus norvegicus = test: Antiinflammatory activity in Fisher 344 rat assessed as inhibition of carrageenan-induced paw edema at 0.01 mmol/kg, ip measured 3.5 hrs after carrageenan challenge relative to control; format: functional; design: scale not given: the % may be the effect or the level left
# [5] = target: Lipoxygenase (Glycine max) (UniProt Q39829); test: Inhibition of soybean lipoxygenase at 100 uM by UV spectrophotometry; design: scale not given: the % may be the effect or the level left
# [6] = test system: Radical scavenging activity; test: Antioxidant activity assessed as DPPH free radical scavenging activity at 50 uM after 20 mins; format: functional
# [7] = test system: Radical scavenging activity; test: Antioxidant activity assessed as DPPH free radical scavenging activity at 50 uM after 60 mins; format: functional
# [8] = Induction of NO release in phosphate buffer pH 7.4 containing 0.5 mM L-cysteine assessed as nitrite level at 100 uM after 60 mins by Griess assay; format: physicochemical; settings: pH 7.4, 1 h
# [9] = Induction of NO release in phosphate buffer pH 7.4 containing 1 mM L-cysteine assessed as nitrite level at 100 uM after 60 mins by Griess assay; format: physicochemical; settings: pH 7.4, 1 h
Compound,Activity [2] [%],Activity [4] [%],Activity [5] [%],Activity [1] [%],Activity [3] [%],also measured
CCCc1noc(NC(C)C)n1,–,–,–,7,7,–
NC(Cc1ccc(Cl)cc1)=NO,3,–,–,–,–,–
O=[N+]([O-])c1ccc(Cc2noc(NC3CCCCC3)n2)cc1,–,–,–,7,7,–
CC(Cc1ccc(O)c(O)c1)C(C)Cc1ccc(O)c(O)c1 (configuration not stated),–,–,83.7,91,84,Activity [6]: 77%; Activity [7]: 81%
COc1ccc2c(c1)c(CC(=O)O)c(C)n2C(=O)c1ccc(Cl)cc1 [INDOMETHACIN],–,–,–,–,–,Activity (Rattus norvegicus): 47%
Cc1ccc(-c2noc(NC(C)C)n2)cc1,–,–,–,18,–,–
Cc1ccc(-c2noc(NC3CCCCC3)n2)cc1,–,–,–,–,–,Activity (Rattus norvegicus): 33%
CC(C)Nc1nc(C2CCCCC2)no1,–,–,–,11,8,–
Clc1ccc(Cc2noc(NC3CCCCC3)n2)cc1,–,–,–,7,7,–
CCNc1nc(-c2ccc([N+](=O)[O-])cc2)no1,–,–,–,9,–,–
N/C(Cc1ccc(Cl)cc1)=N\O,–,–,19,16,–,Activity (Rattus norvegicus): 47%
O=[N+]([O-])c1ccc(-c2noc(NC3CCCCC3)n2)cc1,–,–,> 5,–,–,–
N/C(=N\O)c1ccccc1,–,–,–,30,19,Activity [6]: 8%

# Second part, led by results:
Activity [2] [%],Activity [4] [%],Activity [5] [%],Compound,Activity [1] [%],Activity [3] [%],also measured
7.5,–,–,c1ccc(Cc2noc(NC3CCCCC3)n2)cc1,9,9,–
3,3,74,O=[N+]([O-])c1cccc(-c2noc(NC3CCCCC3)n2)c1,11,11,Activity (Rattus norvegicus): 40%
–,4,–,NC(=NO)c1cccc([N+](=O)[O-])c1,–,–,–
–,8,–,Cc1ccc(/C(N)=N/O)cc1,26,21,Activity (Rattus norvegicus): 41%; Activity [6]: 15%; Activity [7]: 14%
–,19,38,c1ccc(-c2noc(NC3CCCCC3)n2)cc1,–,–,Activity [8]: 4%; Activity (Rattus norvegicus): 51%; Activity [9]: 2%
–,4,–,COc1ccc(C(=N)NO)cc1,57,57,Activity [8]: 4%; Activity (Rattus norvegicus): 45%; Activity [6]: 35%; Activity [9]: 5%; Activity [7]: 44%
71,33,–,CC(=O)N(c1nc(-c2cccc([N+](=O)[O-])c2)no1)C1CCCCC1,2,1,Activity [8]: 42.5%; Activity [9]: 33%
–,14,–,COc1ccc(-c2noc(NC3CCCCC3)n2)cc1,–,–,Activity [9]: 2%
6,–,–,NC(=NO)c1ccccc1 [BENZAMIDOXIME],–,–,Activity [8]: 2%
–,–,24,N/C(=N\O)c1ccc([N+](=O)[O-])cc1,18,9,–
24,–,67,CN(C)CCCNc1nc(-c2ccc([N+](=O)[O-])cc2)no1,4,6,Activity [8]: 7%
7,–,88,CC(C)Nc1nc(-c2cccc([N+](=O)[O-])c2)no1,8,6,–
21,–,–,Cc1ccc(-c2noc(NCCCN(C)C)n2)cc1,8,6,Activity [8]: 7.5%
55,–,–,CC(=O)N(c1nc(-c2cccc([N+](=O)[O-])c2)no1)C(C)C,4,3,–
–,–,25.5,CC(=O)N(c1nc(-c2ccc(C)cc2)no1)C1CCCCC1,3,3,–
4,2,–,CC(C)Nc1nc(Cc2ccc(Cl)cc2)no1,11,8,Activity (Rattus norvegicus): 43%
47,8,–,CC(=O)N(c1nc(-c2ccc([N+](=O)[O-])cc2)no1)C1CCCCC1,4,3,Activity [8]: 12%; Activity [9]: 8%
39,12,–,CC(=O)N(c1nc(Cc2ccc(Cl)cc2)no1)C1CCCCC1,5,2,Activity [8]: 27.5%; Activity [9]: 18%
–,–,32,N/C(=N\O)c1cccc([N+](=O)[O-])c1,15,7,Activity (Rattus norvegicus): 26%
